# According to patent publication US20090117177A1, “Echogenic microbubbles and microemulsions for ultrasound-enhanced nanoparticle-mediated delivery of agents” (priority 2005, published 2009):
# Assays:
# [1] = system: HCT116 colon cancer tumors; experiment: HCT116 biodistribution, DOX uptake by cells of organs by flow cytometry; type: in vivo, male nu/nu mice
# Procedure: (§1) DOX-loaded micelles were injected either intravenously (i.v.) or intratumorally (i.t.) at a DOX dosage of 3 mg/kg (growth rate studies) or 6 mg/kg (biodistribution studies).
# Biodistribution studies: DOX uptake by the cells of various organs was measured by flow cytometry. Mice were intratumorally injected with either free (i.e., PBS-dissolved) DOX or micelle-encapsulated DOX. Ten hours after injection of the composition, mice were sacrificed and tumors and various organs were excised and digested in trypsin.
# [2] = system: HCT116 colon cancer tumors; experiment: HCT116 tumor growth rates; type: in vivo, male nu/nu mice; details: intravenous injection, DOX 3 mg/kg
# Procedure: Tumors: HCT116 colon cancer tumors were inoculated subcutaneously to the right flanks of male nu/nu mice. (See, FIGS. 24 and 25). In contrast to A2780 tumors, this tumor is characterized as being poorly vascularized (See, FIG. 24).
# as §1
# Tumor growth rates: Animals were randomly assigned to experimental and control groups, comprising five animals each. Intravenous treatment was initiated when tumor volume reached 50-100 mm^3. Intratumoral treatment was initiated when tumor volume reached 150-300 mm^3. A total of four injections were delivered twice a week for two weeks. For intratumoral injections, four injections of 25 μl drug solution each were made into four sites of a tumor.
# [3] = system: colon cancer HCT116; experiment: Sensitivity of HCT116 to DOX; type: cell-based, human
# [4] = ten hours after intratumoral injection
smiles,measurement,setting,value
"COc1cccc2c1C(=O)c1c(O)c3c(c(O)c1C2=O)C[C@@](O)(C(=O)CO)C[C@@H]3O[C@H]1C[C@H](N)[C@H](O)[C@H](C)O1 [DOX, doxorubicin]",DOX internalization by tumor cells,[1]; ten hours after i.v. injection,did not deliver drug to tumor cells
same,DOX in spleen cells,[1]; [4],slightly higher
same,DOX uptake by heart cells,[1]; [4],significant uptake
same,tumor response,[2],high resistance to chemotherapy
same,IC50,[3],1.5 µg/mL
